Marks after values point to notes of the source that are not given here.
Key:
[1] = test system: mouse model having motor activity increased by central nervous system stimulation due to caffeine abuse; experiment: Caffeine-induced central nervous system stimulation, motor activity in motor ability measurement box; type: in vivo, ICR male mice; settings: for excitatory motor activity count (center count), percentage of movement in the center of the box: solvent control 16%; for excitatory motor activity time (center time), percentage of maintenance in the center of the box: solvent control 3%; for total movement of excitatory motor activity: solvent control 7,107 cm
Protocol: (§1) 4-week-old ICR male mice (20 to 22 g) were provided from Koatech (Pyeongtaek, Korea), acclimated by breeding for 1 week or more in an animal breeding room in the School of Pharmacy at Sungkyunkwan University, and freely fed water and feed. The temperature (23±2° C.), humidity (55±10%) and a dark/light cycle (12 hrs) were automatically controlled.
To measure an inhibitory effect of evodiamine on caffeine-induced central nervous system stimulation, the mice prepared in Example 2 were divided into four groups of 12 mice, and treated with evodiamine and caffeine in a different manner. The first group was a group treated with distilled water containing 10% DMSO (control), the second group was a group treated with 10% DMSO-containing distilled water and 10 mg/kg of caffeine, the third group was a group treated with 10 mg/kg of evodiamine and 10 mg/kg of caffeine, and the fourth group was a group treated with 20 mg/kg of evodiamine and 10 mg/kg of caffeine.
Evodiamine was dissolved in 10% DMSO-containing distilled water, and orally administered to mice at doses of 0, 10 and 20 mg/kg, and 30 minutes later, intraperitoneally injected with caffeine 10 mg/kg of caffeine. Then, after 30 minutes, the mice were put into a motor ability measurement box (diameter: 30×30×30 (cm)), and measured for a total of 60 minutes using a video measurement and analysis system (Neurovision, Busan, Korea), followed by conversion of the improvement or inhibition in an increased excitatory motor activity count (center count), excitatory motor activity time (center time) and total movement of excitatory motor activity (total movement) to percentage (%).

[2] = test system: mouse model having somnipathy caused by caffeine abuse; experiment: Caffeine-induced somnipathy, Entobar (pentobarbital)-induced sleep onset and sleep duration; type: in vivo, ICR male mice; settings: for Change in sleep onset (% of Control) / Change in total sleep duration (% of Control): vehicle control = 100
Protocol: as §1
Specifically, the first group was a group treated with 10% DMSO-containing distilled water and 40 mg/kg of Entobar® as a control, the second group was a group treated with 10% DMSO-containing distilled water, 50 mg/kg of caffeine and 40 mg/kg of Entobar®, the third group was a group treated with 200 mg/kg of the Evodia officinalis extract, 50 mg/kg of caffeine and 40 mg/kg of Entobar®, and the fourth group was a group treated with 400 mg/kg of the Evodia officinalis extract, 50 mg/kg of caffeine and 40 mg/kg of Entobar®.
Regarding the administration method, the Evodia officinalis extract was dissolved in 10% DMSO-containing distilled water, orally administered to the mice at doses of 0, 200 and 400 mg/kg once a day for three days, and 30 minutes after the final administration. 50 mg/kg of caffeine was intraperitoneally injected into the mice. Thirty minutes after the caffeine injection, 40 mg/kg of Entobar® was intraperitoneally injected to induce sleep. Immediately after the Entobar® injection, the mice were put into each cage, and then sleep onset and sleep duration were measured.
To compare caffeine-induced somnipathy-improving effects of the Evodia officinalis extract and evodiamine, the Evodia officinalis hot water extract prepared in Example 3, ethanol extract thereof and evodiamine were orally administered to the mice prepared in Example 2 once a day for 3 days. 30 minutes after the final administration, 50 mg/kg of caffeine was intraperitoneally injected into the mice. After thirty minutes. 40 mg/kg of Entobar® was intraperitoneally injected to induce sleep, followed by measuring sleep onset and total sleep duration.

[3] = caffeine 50 mg/kg i.p. alone + Entobar 40 mg/kg i.p.
[4] = evodiamine 5 mg/kg p.o. once a day for 3 days + caffeine 50 mg/kg i.p. + Entobar 40 mg/kg i.p.
[5] = evodiamine 10 mg/kg p.o. once a day for 3 days + caffeine 50 mg/kg i.p. + Entobar 40 mg/kg i.p.

Row | SMILES | excitatory motor activity count (center count), percentage of movement in the center of the box ([1]; caffeine 10 mg/kg i.p. alone (10% DMSO vehicle p.o.), 60 min measurement) [%] | excitatory motor activity time (center time), percentage of maintenance in the center of the box ([1]; caffeine 10 mg/kg i.p. alone) [%] | total movement of excitatory motor activity ([1]; caffeine 10 mg/kg i.p. alone) | sleep onset ([2]; caffeine 50 mg/kg i.p. + Entobar 40 mg/kg i.p., control without caffeine 219 seconds) [s] | sleep duration ([2]; caffeine 50 mg/kg i.p. + Entobar 40 mg/kg i.p., control without caffeine 2,940 seconds) | Change in sleep onset (% of Control) [2, 3] | Change in total sleep duration (% of Control) [2, 3] | excitatory motor activity time (center time), percentage of maintenance in the center of the box ([1]; evodiamine 10 mg/kg p.o. + caffeine 10 mg/kg i.p., caffeine control 9%) [%] | excitatory motor activity count (center count), percentage of movement in the center of the box ([1]; evodiamine 10 mg/kg p.o. + caffeine 10 mg/kg i.p., caffeine control 23%) [%] | total movement of excitatory motor activity ([1]; evodiamine 10 mg/kg p.o. + caffeine 10 mg/kg i.p., caffeine control 15,078 cm) | excitatory motor activity time (center time), percentage of maintenance in the center of the box ([1]; evodiamine 20 mg/kg p.o. + caffeine 10 mg/kg i.p., caffeine control 9%) [%] | excitatory motor activity count (center count), percentage of movement in the center of the box ([1]; evodiamine 20 mg/kg p.o. + caffeine 10 mg/kg i.p., caffeine control 23%) [%] | total movement of excitatory motor activity ([1]; evodiamine 20 mg/kg p.o. + caffeine 10 mg/kg i.p., caffeine control 15,078 cm) | Change in sleep onset (% of Control) [2, 4] | Change in total sleep duration (% of Control) [2, 4] | Change in sleep onset (% of Control) [2, 5] | Change in total sleep duration (% of Control) [2, 5]
1 | Cn1c(=O)c2c(ncn2C)n(C)c1=O [caffeine, 1,3,7-trimethylxanthine] | 23 | 9 | 15,078 cm | 371 | 1,812 seconds | 166.8 *** % of Control | 57.4 ** % of Control | – | – | – | – | – | – | – | – | – | –
2 | CN1c2ccccc2C(=O)N2CCc3c([nH]c4ccccc34)C21 (centres unmarked) [evodiamine] | – | – | – | – | – | – | – | 7 | 20 | 12,734 cm | 5 | 19 | 10,910 cm | 138.7 % of Control | 100.5 # % of Control | 108.2 # % of Control | 94.0 % of Control
